For series [1], the system named is respiratory syncytial virus Long strain. The series is described as follows: Antiviral activity against respiratory syncytial virus in HEp-2 cells (MTT cell protection). It counts as cell-based. To be noted: for EC50: human respiratory syncytial virus, read-out: EC50 (concentration that produces 50% cell protection). As for the experimental part: The antiviral activity of these compounds against respiratory syncytial virus was determined in HEp-2 (ATCC CCL 23) cells that were seeded in 96 well microtiter plates at 1.5×10^4 cells/100 μL/well in DMEM (Dulbecco's Modified Eagle's Medium) supplemented with penicillin, streptomycin, glutamine, and 10% fetal bovine serum. The cells were incubated overnight at 37° C., the culture medium was removed, and cells were infected (100 μL volume in medium containing 2% fetal bovine serum) with respiratory syncytial virus Long strain at 5000 plaque forming units/mL. The compounds, 100 μL at appropriate dilution, were added to the cells 1 hour post infection. After incubation for 4 days at 37° C., the plates were stained with MTT solution (3-[4,5-dimethlythiazol-2-yl]-2,5-diphenyltetrazolium bromide) and incubated for 4 hours at 37° C. The media was aspirated from the cells and 100 μL/well of acidified isopropanol (per liter: 900 mL isopropanol, 100 mL Triton X100, and 4 mL conc. HCl) was added. Plates were incubated for 15 minutes at room temperature with shaking, and an optical density (OD 540) reading at 540 nanometer (nm) was obtained. The optical density reading is proportional to the number of viable cells. The increase in the number of viable cells reflects the protective, antiviral activity of the compound. Assays comparing MTT staining in uninfected cells containing compound with uninfected cells in the absence of compound provide a measure of cellular toxicity.
The antiviral activity of compounds, designated as EC50, is presented as a concentration that produces 50% cell protection in the assay. […]

The conditions of series [2]: acid used as salt former; cited from earlier work.

Where two headings read alike, the source gives them in different places.

Molecule `NC(=O)c1ncn([C@@H]2O[C@H](CO)[C@@H](O)[C@H]2O)n1` [Ribavirin] returned a cell protection in series [1] (at 2.5 μg/mL (corresponding to 10.2 μM)) of 100%. Besides, the EC50 in series [1] (96 h, HEp-2 cells, RSV Long strain, 4 days, MTT) amounted to 3 µM.

With `O=c1n(Cc2nc3ccccc3n2CCCCO)c2cnccc2n1C1CC1` [compound II], the EC50 in series [1] (HEp-2, 96 h) came out at 0.06 µM.

For the molecule `O=C(O)/C=C/C(=O)O` [fumaric acid], the “first pKa” value in series [2] was ~3.

On to `O=C(O)/C=C\C(=O)O` [maleic acid], for which the “first pKa” value in series [2] is listed as ~2.

Source of the values: US6737428B2, “BIS hydrochloride monohydrate salt of RSV fusion inhibitor” (Bristol-Myers Squibb Company, priority 2001, dated 2004).
